Two compounds from BindingDB's records for patent US20250145606 (Arcus Biosciences, 2025) can be followed below.

The structures appear in SMILES notation.

Experiment in all cases: Inhibition of c-Kit, PDGFRα, PDGFRβ, CSFIR and FLT3 Kinase Activity Assay
In experiment [1] the target is Macrophage colony-stimulating factor 1 receptor (Homo sapiens, UniProt P07333). The method, then: (§1) On the day of the assay, compounds were solubilized in DMSO and dispensed into a 384-well white Opti-plate (PerkinElmer, catalog #6007290) to generate a 22 point 1:2 titration. Enzyme solution was prepared for each of the tyrosine kinases in 50 mM HEPES, pH 7.4, 5 mM MgCl2 for c-Kit or 10 mM MgCl2 for FLT3, CSFIR, PDGFRa and PDGFRβ, 2 mM MnCl2, 0.01% Brij-35 and 0.01% BSA. Working enzyme concentrations were prepared for c-Kit at 2 nM (2×), PDGFRa and PDGFR at 10 nM (2×), CSFIR at 2 nM (2×) and FLT3 at 0.4 nM (2×). Five microliters of enzyme dilution of each tyrosine kinase were added to their respective 384-well white Opti-plate pre-dispensed with compound and allowed to incubate for 1 h at rt. Utilizing the same enzyme buffer recipe, 2x substrate mixes were prepared for each enzyme as follows: For c-Kit, 1.6 μM (2×) TK substrate and 16 μM (2×) ATP (Promega, catalog #V915). For PDGFRα, 3.2 μM TK substrate and 1 μM ATP. For PDGFRβ, 3.2 μM TK substrate and 40 μM ATP. For CSFIR, […] TK substrate and 20 μM ATP. For FLT3, 3.2 μM TK substrate and 100 μM ATP. Reactions were initiated by addition of 5 μL of the respective 2x substrate mix to each well of the plates containing the respective tyrosine kinase enzymes and were allowed to proceed for 120 minutes at rt, except for FLT3, the reaction time is 45 min. Following the reaction, 10 μL of detection mix consisting of 0.2 μM (2×) of Streptavidin-XL665 and 2 μM (2×) of TK-Antibody-Cryptate prepared in detection buffer (Part 62SDBRDF of KinEASE assay kit) was added and then allowed to incubate for 60 min. The TR-FRET signal was quantified by measuring the ratio of emission at 665 nm to 620 nm after excitation at 320 nm by reading on a PerkinElmer Envision multimode reader. Compound potencies (IC50 values) were determined using a standard 4-parameter non-linear regression fit.

The target in experiment [2] is Platelet-derived growth factor receptor alpha (Homo sapiens, UniProt P16234). As for the experimental part: as §1
In experiment [3] the target is Platelet-derived growth factor receptor beta (Homo sapiens, UniProt P09619). As for the experimental part: as §1
For experiment [4], the target named is Mast/stem cell growth factor receptor Kit (Homo sapiens, UniProt P10721). As for the experimental part:
as §1

Chain of Macrophage colony-stimulating factor 1 receptor (P07333 whole entry): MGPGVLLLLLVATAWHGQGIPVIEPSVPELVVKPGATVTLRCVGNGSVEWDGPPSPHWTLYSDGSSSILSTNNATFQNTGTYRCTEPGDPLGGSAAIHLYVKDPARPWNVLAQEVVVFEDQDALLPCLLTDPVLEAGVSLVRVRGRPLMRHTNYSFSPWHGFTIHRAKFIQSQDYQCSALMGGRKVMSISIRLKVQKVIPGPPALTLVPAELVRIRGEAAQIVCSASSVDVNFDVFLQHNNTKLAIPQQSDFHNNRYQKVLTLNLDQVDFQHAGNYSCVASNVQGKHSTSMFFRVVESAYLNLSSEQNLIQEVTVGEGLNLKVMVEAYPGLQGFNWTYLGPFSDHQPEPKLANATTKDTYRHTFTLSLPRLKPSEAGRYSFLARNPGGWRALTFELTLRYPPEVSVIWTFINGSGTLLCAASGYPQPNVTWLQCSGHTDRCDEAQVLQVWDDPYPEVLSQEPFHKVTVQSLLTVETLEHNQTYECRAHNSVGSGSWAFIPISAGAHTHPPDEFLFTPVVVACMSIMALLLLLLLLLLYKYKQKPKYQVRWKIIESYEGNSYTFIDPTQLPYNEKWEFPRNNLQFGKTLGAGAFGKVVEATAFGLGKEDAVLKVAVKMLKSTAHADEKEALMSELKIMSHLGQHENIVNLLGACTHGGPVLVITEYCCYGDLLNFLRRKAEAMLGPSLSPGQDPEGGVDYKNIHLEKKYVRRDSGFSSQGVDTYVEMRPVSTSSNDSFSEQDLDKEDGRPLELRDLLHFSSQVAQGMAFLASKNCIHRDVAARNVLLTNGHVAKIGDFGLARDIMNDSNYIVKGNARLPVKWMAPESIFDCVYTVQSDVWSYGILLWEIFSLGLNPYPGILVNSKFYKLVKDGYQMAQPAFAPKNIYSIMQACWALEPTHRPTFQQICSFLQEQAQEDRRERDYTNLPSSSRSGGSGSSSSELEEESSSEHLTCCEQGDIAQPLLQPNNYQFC
Chain of Platelet-derived growth factor receptor beta (P09619 whole entry): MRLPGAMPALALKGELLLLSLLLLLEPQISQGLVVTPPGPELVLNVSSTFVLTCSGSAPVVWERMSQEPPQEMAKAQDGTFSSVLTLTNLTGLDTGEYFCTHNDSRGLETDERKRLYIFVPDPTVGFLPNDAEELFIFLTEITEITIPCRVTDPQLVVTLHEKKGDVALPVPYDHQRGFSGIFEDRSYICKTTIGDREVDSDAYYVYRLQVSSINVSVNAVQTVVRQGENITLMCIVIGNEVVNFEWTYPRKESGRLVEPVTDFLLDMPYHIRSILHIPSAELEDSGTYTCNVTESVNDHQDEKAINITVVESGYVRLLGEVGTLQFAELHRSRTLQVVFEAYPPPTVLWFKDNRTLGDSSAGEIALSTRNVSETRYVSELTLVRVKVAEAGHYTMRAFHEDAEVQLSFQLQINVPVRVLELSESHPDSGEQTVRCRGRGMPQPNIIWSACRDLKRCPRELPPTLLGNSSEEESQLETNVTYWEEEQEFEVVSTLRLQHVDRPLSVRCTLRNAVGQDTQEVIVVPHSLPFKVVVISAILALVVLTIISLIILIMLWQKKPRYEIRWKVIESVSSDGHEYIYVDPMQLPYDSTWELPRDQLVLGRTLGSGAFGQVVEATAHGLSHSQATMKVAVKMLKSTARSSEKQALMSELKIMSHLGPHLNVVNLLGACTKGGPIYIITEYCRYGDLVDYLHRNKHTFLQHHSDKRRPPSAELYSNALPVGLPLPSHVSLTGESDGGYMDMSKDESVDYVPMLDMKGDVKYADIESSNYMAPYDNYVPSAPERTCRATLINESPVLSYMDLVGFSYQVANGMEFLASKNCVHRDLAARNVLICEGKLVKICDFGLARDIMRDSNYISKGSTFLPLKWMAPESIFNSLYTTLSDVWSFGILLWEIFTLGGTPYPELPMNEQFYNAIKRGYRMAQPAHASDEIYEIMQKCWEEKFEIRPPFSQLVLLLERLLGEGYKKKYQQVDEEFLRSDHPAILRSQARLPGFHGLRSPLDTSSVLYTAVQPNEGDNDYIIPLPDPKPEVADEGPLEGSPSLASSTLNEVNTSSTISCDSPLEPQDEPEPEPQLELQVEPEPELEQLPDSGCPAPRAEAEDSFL
Chain of Platelet-derived growth factor receptor alpha (P16234 whole entry): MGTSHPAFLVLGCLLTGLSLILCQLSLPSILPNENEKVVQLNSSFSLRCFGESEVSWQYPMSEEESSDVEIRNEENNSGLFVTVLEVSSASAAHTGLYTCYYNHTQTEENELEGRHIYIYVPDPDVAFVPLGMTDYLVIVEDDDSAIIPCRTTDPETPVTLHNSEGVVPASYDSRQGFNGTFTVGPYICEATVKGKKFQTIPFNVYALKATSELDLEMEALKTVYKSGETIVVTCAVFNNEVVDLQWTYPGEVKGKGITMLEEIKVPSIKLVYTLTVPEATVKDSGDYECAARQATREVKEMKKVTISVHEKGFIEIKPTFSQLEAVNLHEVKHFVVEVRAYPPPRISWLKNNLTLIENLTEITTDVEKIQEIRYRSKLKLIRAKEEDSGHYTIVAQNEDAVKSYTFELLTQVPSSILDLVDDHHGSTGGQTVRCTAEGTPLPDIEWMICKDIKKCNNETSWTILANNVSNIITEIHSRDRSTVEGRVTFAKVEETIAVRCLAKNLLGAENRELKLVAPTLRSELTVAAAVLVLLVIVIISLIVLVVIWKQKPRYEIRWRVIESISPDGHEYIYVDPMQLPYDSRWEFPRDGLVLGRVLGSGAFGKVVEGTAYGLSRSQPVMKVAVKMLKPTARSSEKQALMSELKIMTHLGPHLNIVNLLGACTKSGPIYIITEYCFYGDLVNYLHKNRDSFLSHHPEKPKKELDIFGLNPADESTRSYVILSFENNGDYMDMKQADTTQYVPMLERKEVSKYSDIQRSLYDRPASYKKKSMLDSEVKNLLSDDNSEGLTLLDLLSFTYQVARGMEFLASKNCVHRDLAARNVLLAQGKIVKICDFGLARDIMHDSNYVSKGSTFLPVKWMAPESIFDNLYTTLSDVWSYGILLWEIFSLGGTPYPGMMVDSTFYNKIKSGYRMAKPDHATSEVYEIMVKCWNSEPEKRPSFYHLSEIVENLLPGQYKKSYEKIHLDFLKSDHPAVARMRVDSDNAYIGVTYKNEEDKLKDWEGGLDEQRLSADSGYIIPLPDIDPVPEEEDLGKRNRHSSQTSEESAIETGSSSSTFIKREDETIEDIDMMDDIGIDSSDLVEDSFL
Chain of Mast/stem cell growth factor receptor Kit (P10721 whole entry): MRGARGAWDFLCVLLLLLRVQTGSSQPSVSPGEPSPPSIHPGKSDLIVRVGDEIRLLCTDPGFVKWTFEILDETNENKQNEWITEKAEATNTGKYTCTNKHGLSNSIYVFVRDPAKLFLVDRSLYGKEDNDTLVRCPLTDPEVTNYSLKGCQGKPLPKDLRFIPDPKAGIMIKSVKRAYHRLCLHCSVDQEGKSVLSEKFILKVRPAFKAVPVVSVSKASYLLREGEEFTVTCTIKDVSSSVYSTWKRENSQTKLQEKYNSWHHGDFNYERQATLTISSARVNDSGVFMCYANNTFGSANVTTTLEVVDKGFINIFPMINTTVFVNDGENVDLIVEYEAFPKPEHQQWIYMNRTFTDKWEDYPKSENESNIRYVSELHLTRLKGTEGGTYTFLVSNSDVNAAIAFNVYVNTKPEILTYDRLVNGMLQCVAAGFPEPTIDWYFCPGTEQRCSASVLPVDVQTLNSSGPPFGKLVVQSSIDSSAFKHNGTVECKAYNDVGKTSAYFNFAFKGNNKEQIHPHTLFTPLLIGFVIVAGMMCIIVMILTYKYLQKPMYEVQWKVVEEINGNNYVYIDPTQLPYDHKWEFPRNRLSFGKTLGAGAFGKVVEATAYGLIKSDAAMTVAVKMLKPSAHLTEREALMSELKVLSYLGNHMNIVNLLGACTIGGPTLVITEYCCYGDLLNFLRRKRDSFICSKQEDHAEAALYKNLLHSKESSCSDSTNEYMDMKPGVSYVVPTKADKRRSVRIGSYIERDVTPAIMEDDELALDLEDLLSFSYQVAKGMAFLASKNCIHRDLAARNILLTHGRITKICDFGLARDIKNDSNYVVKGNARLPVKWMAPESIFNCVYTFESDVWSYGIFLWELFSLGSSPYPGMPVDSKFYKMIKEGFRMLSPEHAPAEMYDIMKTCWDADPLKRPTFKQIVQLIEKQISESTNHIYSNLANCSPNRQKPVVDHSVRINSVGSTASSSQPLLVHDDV

Regarding `Cc1ncc(C(=O)Nc2cc(C(=O)NCc3cccnc3)c(F)cc2C)s1` [US20250145606, Example 12], the IC50 in experiment [1], in experiment [2] and in experiment [3] was above 1 µM throughout.

For the compound `Cc1cc(F)c(C(=O)Nc2cn[nH]c2)cc1NC(=O)c1cnc(N)s1` [US20250145606, Example 157], the IC50 (commonly the concentration that gives 50% inhibition) is above 1 µM in experiment [1], below 0.1 µM in experiment [4], above 1 µM in experiment [2] and above 1 µM in experiment [3].
